This is an account of results in patent publication US10010608B2, “Combination therapies for cancer” (MERCK SHARP & DOHME CORP., priority 2013, dated 2018).

The structures appear in SMILES notation.

The assay has as its system CT-26 murine colorectal adenocarcinoma cell line. The experiment in a line: Anti-tumor response of CT-26 tumor-bearing BALB/c mice (syngeneic model). Type of assay: in vivo, mouse. The text has this:
This experiment compared the anti-tumor response of tumor-bearing mice to treatment with one of three regimens: (i) monotherapy with a murine anti-mouse PD-1 monoclonal antibody of murine isotype IgG1 (Anti-PD1); (ii) monotherapy with trametinib and (iii) combination therapy with anti-PD1 and trametinib administered concurrently. Murine isotype IgG1 is the murine counterpart isotype to human isotype IgG4.
While human tumor cells or tumor explants can be grown in immunodeficient animals as xenografts, they cannot be used for testing immunotherapeutics because of the lack of a functional immune system. For a meaningful evaluation of immunotherapeutics or combination of immunotherapeutics with other agents, it is necessary to use a syngeneic model in which syngeneic tumors are grown in animals with an intact immune system. CT-26 is a murine colorectal adenocarcinoma cell line syngeneic to the BALB/c mouse strain. CT-26 carries a KRAS mutation that activates the mitogen-activating protein kinase pathway, which makes it a relevant model to evaluate sensitivity to trametinib (an inhibitor of mitogen-activated protein kinase kinase). This is also a relevant model system for evaluating the mechanism of action for an anti-PD-1 antibody because of the translatable molecular profile of this tumor post-anti-PD-1 therapy. […]

As to `CC(=O)Nc1cccc(-n2c(=O)n(C3CC3)c(=O)c3c(Nc4ccc(I)cc4F)n(C)c(=O)c(C)c32)c1` [trametinib, N-{3-[3-cyclopropyl-5-(2-fluoro-4-iodo-phenylamino)6,8-dimethyl-2,4,7-trioxo-3,4,6,7-tetrahydro-2H-pyrido[4,3-d]pyrimidin-1-yl]phenyl}acetamide], the “effect of trametinib on the anti-tumor effects of Anti-PD1” value (combination treatment arm) is recorded as “did not appear to antagonize”. Moreover, under “end of the 23 day treatment period, 12 mice per group”, the “animals with complete regression (CR)” value was “no CRs”.
